Measured values from patent publication US4147861A, “1N-(α-Hydroxy-ω-aminoalkanoyl)- 6'N-methyl-3',4'-dideoxykanamycin B and the production thereof” (Zaidan Hojin Biseibutsu Kagaku Kenkyu Kai, priority 1977, dated 1979).
Values after ≈ are worked out from the molar mass of the structure shown.

What was measured:
[1] = tested on: kanamycin-resistant bacteria; details: prior art statement; cited from earlier work
[2] = tested on: Shigella dysenteriae JS 11910; assay: Minimum inhibitory concentration, serial dilution method on nutrient agar; type: cell-based; details: JS11910, 18 h, read-out: Minimum Inhibitory Concentrations
[3] = tested on: Escherichia coli LA290 R55; assay: as above; type: cell-based; details: LA290R55, 18 h, read-out: Minimum Inhibitory Concentrations
Escherichia coli K-12 R5 = assay: as above; type: cell-based; details: K12R5, 18 h, read-out: Minimum Inhibitory Concentrations
[4] = tested on: Bacillus subtilis NRRL B-558; assay: as above; type: cell-based; details: NRRLB558, 37° C., 18 hours, read-out: Minimum Inhibitory Concentrations
[5] = tested on: Staphylococcus aureus FDA 209P; assay: as above; type: cell-based; details: FDA209P, 37° C., 18 hours, read-out: Minimum Inhibitory Concentrations
[6] = tested on: Escherichia coli LA290 R56; assay: as above; type: cell-based; details: LA290R56, 18 h, read-out: Minimum Inhibitory Concentrations
[7] = tested on: Pseudomonas aeruginosa A3; assay: as above; type: cell-based; details: 37° C., 18 hours, read-out: Minimum Inhibitory Concentrations
Description: (§1) The minimum inhibitory concentrations (mcg./ml.) of 1N-(DL-isoseryl)-6'N-methyl-3',4'-dideoxykanamycin B (abbreviated as DL-IS-MDKB); 1N-(L-isoseryl)-6'N-methyl-3',4'-dideoxykanamycin B (abbreviated as L-IS-MDKB); 1N-(L-4-amino-[…])-6'N-methyl-3',4'-dideoxykanamycin B (abbreviated as AHB-MDKB); and 1N-(L-5-amino-2-hydroxyvaleryl)-6'N-methyl-3',4'-dideoxykanamycin B (abbreviated as AHV-MDBK) against various organisms were determined according to serial dilution method using nutrient agar medium at 37° C., the readings being made after 18 hours incubation. For the comparison purpose, the minimum inhibitory concentrations (mcg./ml.) of 1 N-(L-4-amino-2-hydroxybutyryl)-kanamycin A (abbreviated as AHB-KMA) and 1N-([…])-kanamycin B (abbreviated as AHB-KMB) which are known from U.S. Pat. No. 3,781,268 were also determined by the same manner as stated above.

Shigella sonnei JS 11746 = assay: as above; type: cell-based; details: JS11746, 37° C., 18 hours, read-out: Minimum Inhibitory Concentrations
Description: as §1

[8] = tested on: Klebsiella pneumoniae 22 No. 3038; assay: as above; type: cell-based; details: 37° C., 18 hours, read-out: Minimum Inhibitory Concentrations
Description: as §1

[9] = tested on: Shigella flexneri 4b JS 11811; assay: as above; type: cell-based; details: 4BJS11811, 37° C., 18 hours, read-out: Minimum Inhibitory Concentrations
Description: as §1

[10] = tested on: Escherichia coli K-12 ML 1630; assay: as above; type: cell-based; details: K12ML1630, 37° C., 18 hours, read-out: Minimum Inhibitory Concentrations
Description: as §1

[11] = tested on: Escherichia coli K-12 ML 1410; assay: as above; type: cell-based; details: K12ML1410; Escherichia coli K-12 ML 1410; 37° C., 18 hours; read-out: Minimum Inhibitory Concentrations
Bacillus anthracis = assay: microbe, parasite or virus in culture; type: cell-based; details: 18 h, read-out: Minimum Inhibitory Concentrations
[12] = tested on: Escherichia coli LA290 R64; assay: Minimum inhibitory concentration, serial dilution method on nutrient agar; type: cell-based; details: LA290R64, 18 h, read-out: Minimum Inhibitory Concentrations
Escherichia coli W677 = assay: as above; type: cell-based; details: Escherichia coli W677; 37° C., 18 hours; read-out: Minimum Inhibitory Concentrations
[13] = tested on: Staphylococcus aureus Terajima; assay: as above; type: cell-based; details: 37° C., 18 hours, read-out: Minimum Inhibitory Concentrations
[14] = tested on: Bacillus subtilis PCI 219; assay: as above; type: cell-based; details: PCI219, 37° C., 18 hours, read-out: Minimum Inhibitory Concentrations
Escherichia coli NIHJ = assay: as above; type: cell-based; details: Escherichia coli NIHJ; 37° C., 18 hours; read-out: Minimum Inhibitory Concentrations
[15] = tested on: Klebsiella pneumoniae PCT 602; assay: as above; type: cell-based; details: PCT602; Klebsiella pneumoniae PCT 602; 37° C., 18 hours; read-out: Minimum Inhibitory Concentrations
Escherichia coli K-12 = assay: as above; type: cell-based; details: K12; Escherichia coli K-12; 37° C., 18 hours; read-out: Minimum Inhibitory Concentrations
[16] = tested on: Pseudomonas aeruginosa GN315; assay: as above; type: cell-based; details: Pseudomonas aeruginosa, GN315, 18 h, read-out: Minimum Inhibitory Concentrations
Staphylococcus aureus = assay: as above; type: cell-based; details: 37° C., 18 hours, read-out: Minimum Inhibitory Concentrations
[17] = tested on: Salmonella enteritidis 1891; assay: as above; type: cell-based; details: Salmonella enterica; Salmonella enteritidis 1891; 37° C., 18 hours; read-out: Minimum Inhibitory Concentrations
[18] = tested on: Pseudomonas aeruginosa 99; assay: as above; type: cell-based; details: 37° C., 18 hours, read-out: Minimum Inhibitory Concentrations
Proteus vulgaris OX 19 = assay: as above; type: cell-based; details: OX19; Proteus vulgaris OX 19; 37° C., 18 hours; read-out: Minimum Inhibitory Concentrations
[19] = tested on: Pseudomonas aeruginosa TI-13; assay: as above; type: cell-based; details: Pseudomonas aeruginosa, TI13, 18 h, read-out: Minimum Inhibitory Concentrations
[20] = tested on: Escherichia coli JR66/W677; assay: as above; type: cell-based; details: Escherichia coli, JR66/W677, 18 h, read-out: Minimum Inhibitory Concentrations
[21] = tested on: Mycobacterium smegmatis ATCC 607; assay: as above; type: cell-based; details: Mycolicibacterium smegmatis, ATCC607, 37° C., 18 hours, read-out: Minimum Inhibitory Concentrations
Sarcina lutea PCI 1001 = assay: as above; type: cell-based; details: Micrococcus luteus, PCI1001, 18 h, read-out: Minimum Inhibitory Concentrations
[22] = tested on: Bacillus cereus ATCC 10702; assay: as above; type: cell-based; details: Bacillus cereus, ATCC10702, 18 h, read-out: Minimum Inhibitory Concentrations
[23] = tested on: Pseudomonas aeruginosa No. 12; assay: as above; type: cell-based; details: Pseudomonas aeruginosa, NO.12, 18 h, read-out: Minimum Inhibitory Concentrations
Salmonella typhosa T-63 = assay: as above; type: cell-based; details: Salmonella enterica, 18 h, read-out: Minimum Inhibitory Concentrations
[24] = tested on: Corynebacterium bovis 1810; assay: as above; type: cell-based; details: Corynebacterium bovis, 1810, 18 h, read-out: Minimum Inhibitory Concentrations
[25] = tested on: Escherichia coli K-12 ML 1629; assay: as above; type: cell-based; details: K12ML1629; Escherichia coli K-12 ML 1629; 37° C., 18 hours; read-out: Minimum Inhibitory Concentrations

NCC[C@H](O)C(=O)N[C@@H]1C[C@H](N)[C@@H](O[C@H]2O[C@H](CN)[C@@H](O)[C@H](O)[C@H]2N)[C@H](O)[C@H]1O[C@H]1O[C@H](CO)[C@@H](O)[C@H](N)[C@H]1O [AHB-KMB, 1N-(L-4-amino-2-hydroxybutyryl)kanamycin B]
activity against kanamycin-resistant bacteria [1]: active against a large number of kanamycin-resistant bacteria

CNC[C@@H]1CC[C@@H](N)[C@@H](O[C@H]2[C@H](O)[C@@H](O[C@H]3O[C@H](CO)[C@@H](O)[C@H](N)[C@H]3O)[C@H](NC(=O)[C@@H](O)CCN)C[C@@H]2N)O1 [AHB-MDKB, 1N-(L-4-amino-2-hydroxybutyryl)-6'N-methyl-3',4'-dideoxykanamycin B]
MIC [2]: 3.13 µg/mL (≈ 5.52 µM)
MIC [3]: 0.78 µg/mL (≈ 1.38 µM)
MIC (Escherichia coli K-12 R5): 1.56 µg/mL (≈ 2.75 µM)
MIC [4]: < 0.2 µg/mL
MIC [5]: 0.78 µg/mL (≈ 1.38 µM)
MIC [6]: 0.78 µg/mL (≈ 1.38 µM)
MIC [7]: 3.13 µg/mL (≈ 5.52 µM)
MIC (Shigella sonnei JS 11746): 6.25 µg/mL (≈ 11 µM)
MIC [8]: 3.13 µg/mL (≈ 5.52 µM)
MIC [9]: 3.13 µg/mL (≈ 5.52 µM)
MIC [10]: 0.78 µg/mL (≈ 1.38 µM)
MIC [11]: 1.56 µg/mL (≈ 2.75 µM)
MIC (Bacillus anthracis): < 0.2 µg/mL
MIC [12]: 0.78 µg/mL (≈ 1.38 µM)
MIC (Escherichia coli W677): 0.78 µg/mL (≈ 1.38 µM)
MIC [13]: < 0.2 µg/mL
MIC [14]: < 0.2 µg/mL
MIC (Escherichia coli NIHJ): 1.56 µg/mL (≈ 2.75 µM)
MIC [15]: 0.78 µg/mL (≈ 1.38 µM)
MIC (Escherichia coli K-12): 0.78 µg/mL (≈ 1.38 µM)
MIC [16]: 6.25 µg/mL (≈ 11 µM)
MIC (Staphylococcus aureus): < 0.2 µg/mL
MIC [17]: 1.56 µg/mL (≈ 2.75 µM)
MIC [18]: 25 µg/mL (≈ 44.1 µM)
MIC (Proteus vulgaris OX 19): 1.56 µg/mL (≈ 2.75 µM)
MIC [19]: 6.25 µg/mL (≈ 11 µM)
MIC [20]: 3.13 µg/mL (≈ 5.52 µM)
MIC [21]: 0.2 µg/mL (≈ 0.353 µM)
MIC (Sarcina lutea PCI 1001): 3.13 µg/mL (≈ 5.52 µM)
MIC [22]: 3.13 µg/mL (≈ 5.52 µM)
MIC [23]: 3.13 µg/mL (≈ 5.52 µM)
MIC (Salmonella typhosa T-63): 3.13 µg/mL (≈ 5.52 µM)
MIC [24]: 3.13 µg/mL (≈ 5.52 µM)
MIC [25]: 1.56 µg/mL (≈ 2.75 µM)

NC[C@@H]1CC[C@@H](N)[C@@H](O[C@H]2[C@H](O)[C@@H](O[C@H]3O[C@H](CO)[C@@H](O)[C@H](N)[C@H]3O)[C@H](N)C[C@@H]2N)O1 [3',4'-dideoxykanamycin B, 3',4'-Dideoxykanamycin B]
activity against kanamycin-resistant bacteria [1]: active against a large number of kanamycin-resistant bacteria
